US10023601B2, “Hydrolysis resistant sialic acid derivatives and methods for their use” (The University of British Columbia, priority 2014, dated 2018)
Where a name gives a salt, the structure may show the parent alone. Read-outs that look alike come from different tables or passages of the source.

What was measured:
[1] = Spontaneous hydrolysis of CMP 7-modified sialic acids by 1H-NMR; format: physicochemical
Cst-I = Cst-I (Campylobacter jejuni, UniProt Q9RGF1)
Pm0188h = target: T1, Pm0188h (Pasteurella multocida, UniProt Q15KI8); assay: Sialyltransferase kinetics, CMP release assay, transfer to lactose by Pm0188h
T1 sequence (Q15KI8 26-412): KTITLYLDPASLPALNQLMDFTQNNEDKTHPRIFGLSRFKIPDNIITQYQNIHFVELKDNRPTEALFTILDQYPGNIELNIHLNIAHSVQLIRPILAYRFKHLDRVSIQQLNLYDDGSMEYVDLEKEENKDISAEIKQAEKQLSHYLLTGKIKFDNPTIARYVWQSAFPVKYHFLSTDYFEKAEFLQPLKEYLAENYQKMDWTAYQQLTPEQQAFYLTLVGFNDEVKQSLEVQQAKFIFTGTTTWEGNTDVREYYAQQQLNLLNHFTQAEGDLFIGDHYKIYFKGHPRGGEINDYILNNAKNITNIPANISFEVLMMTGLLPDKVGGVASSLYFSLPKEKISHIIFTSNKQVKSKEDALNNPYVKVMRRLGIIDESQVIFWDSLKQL

[2] = Spontaneous hydrolysis of 7-modified sialyl-galactose conjugates by 1H-NMR; format: physicochemical; conditions: high salt, dilute acid (25 mM HCl)
[3] = target: C. perfringens (GH33) sialidase (NanI) (Clostridium perfringens, UniProt A0A0H2YQR1); format: biochemical
[4] = target: influenza neuraminidase N9 (GH34) (Influenza A virus, UniProt P03472); format: biochemical; conditions: pH 5.9
[5] = target: T2, T. rangeli (GH33) sialidase (TrSA) (Trypanosoma rangeli, UniProt O44049); assay: Sialidase kinetics, β-galactosidase coupled assay, T. rangeli sialidase
T2 sequence (O44049 23-660): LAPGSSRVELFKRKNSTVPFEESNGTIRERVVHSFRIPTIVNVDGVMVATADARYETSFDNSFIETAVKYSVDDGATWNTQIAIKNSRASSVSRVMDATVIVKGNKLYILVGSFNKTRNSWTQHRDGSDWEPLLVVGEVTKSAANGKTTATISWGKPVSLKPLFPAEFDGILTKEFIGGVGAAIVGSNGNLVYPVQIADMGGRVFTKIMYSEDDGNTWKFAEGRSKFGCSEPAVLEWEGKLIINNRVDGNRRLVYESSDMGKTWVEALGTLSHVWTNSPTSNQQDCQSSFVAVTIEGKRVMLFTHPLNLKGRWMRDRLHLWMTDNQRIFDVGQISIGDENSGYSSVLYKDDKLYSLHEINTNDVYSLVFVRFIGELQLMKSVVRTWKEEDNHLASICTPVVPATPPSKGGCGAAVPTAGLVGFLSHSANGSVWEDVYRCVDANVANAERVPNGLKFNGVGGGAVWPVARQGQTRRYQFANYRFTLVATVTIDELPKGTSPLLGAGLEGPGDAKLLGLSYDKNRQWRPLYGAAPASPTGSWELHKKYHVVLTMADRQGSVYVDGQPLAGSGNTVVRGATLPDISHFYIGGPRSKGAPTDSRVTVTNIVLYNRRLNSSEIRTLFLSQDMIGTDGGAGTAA

Cst-I, sequence (Q9RGF1 1-285 limits assumed): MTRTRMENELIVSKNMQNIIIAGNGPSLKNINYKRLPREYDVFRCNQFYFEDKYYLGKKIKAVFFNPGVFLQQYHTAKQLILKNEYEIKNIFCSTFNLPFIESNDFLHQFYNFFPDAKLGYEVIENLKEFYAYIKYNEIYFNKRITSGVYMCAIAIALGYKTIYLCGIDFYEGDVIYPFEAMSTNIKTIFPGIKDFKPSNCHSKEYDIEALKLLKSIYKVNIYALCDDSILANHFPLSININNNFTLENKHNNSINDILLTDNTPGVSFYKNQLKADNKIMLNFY
C. perfringens (GH33) sialidase (NanI), sequence (A0A0H2YQR1 1-694): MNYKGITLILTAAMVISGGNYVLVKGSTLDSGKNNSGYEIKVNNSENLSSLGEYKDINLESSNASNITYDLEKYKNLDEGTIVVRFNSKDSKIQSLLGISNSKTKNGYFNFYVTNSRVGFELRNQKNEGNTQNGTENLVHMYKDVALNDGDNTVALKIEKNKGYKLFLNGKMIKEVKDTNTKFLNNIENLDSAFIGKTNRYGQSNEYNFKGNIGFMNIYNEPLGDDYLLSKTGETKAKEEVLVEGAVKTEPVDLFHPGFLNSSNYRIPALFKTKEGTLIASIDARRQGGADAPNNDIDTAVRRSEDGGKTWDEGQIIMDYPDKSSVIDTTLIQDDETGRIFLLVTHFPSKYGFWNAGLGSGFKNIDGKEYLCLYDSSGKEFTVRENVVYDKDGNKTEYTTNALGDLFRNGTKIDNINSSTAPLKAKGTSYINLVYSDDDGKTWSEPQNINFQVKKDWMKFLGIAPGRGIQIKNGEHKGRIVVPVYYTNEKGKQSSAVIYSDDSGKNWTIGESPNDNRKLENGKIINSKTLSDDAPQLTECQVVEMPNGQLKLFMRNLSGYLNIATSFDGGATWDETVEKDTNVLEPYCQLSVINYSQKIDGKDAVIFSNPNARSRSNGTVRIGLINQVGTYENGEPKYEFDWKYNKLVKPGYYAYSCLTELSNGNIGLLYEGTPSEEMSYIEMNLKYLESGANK
influenza neuraminidase N9 (GH34), sequence (P03472 whole entry, looked up): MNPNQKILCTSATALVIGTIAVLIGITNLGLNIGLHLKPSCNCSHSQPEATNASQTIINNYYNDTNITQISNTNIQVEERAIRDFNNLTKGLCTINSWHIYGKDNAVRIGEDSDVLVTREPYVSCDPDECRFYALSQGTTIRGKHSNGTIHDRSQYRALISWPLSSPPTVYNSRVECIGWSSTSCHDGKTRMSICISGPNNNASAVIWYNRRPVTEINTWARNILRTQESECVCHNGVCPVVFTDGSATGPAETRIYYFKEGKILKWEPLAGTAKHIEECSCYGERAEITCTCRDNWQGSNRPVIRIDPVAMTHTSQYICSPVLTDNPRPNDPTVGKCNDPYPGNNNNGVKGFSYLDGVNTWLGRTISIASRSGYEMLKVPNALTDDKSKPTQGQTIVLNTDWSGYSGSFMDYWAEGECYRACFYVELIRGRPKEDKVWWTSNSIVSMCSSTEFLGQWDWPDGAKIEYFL

CC(=O)N[C@H]1[C@H](C(F)(F)[C@H](O)CO)O[C@](OP(=O)(O)OC[C@H]2O[C@@H](n3ccc(N)nc3=O)[C@H](O)[C@@H]2O)(C(=O)O)C[C@@H]1O [compound 15, 5-Acetamido-3,5,7-trideoxy-2-(hydrogen 5′-cytidylate)-7,7-difluoro-D-glycero-b-D-galacto-2-nonulopyranosidic acid diammonium salt]
krel [1]: 0.01 | Hydrolysis rate constant ([1]; pH 7.2): 0.0084 (±0.0008) h^−1 | kcat (rel) (Cst-I): 0.25 | kcat (rel) (Pm0188h): 0.06

CC(=O)NC1C(O)CC(OC2C(O)C(CO)OC(Oc3ccc4c(C)cc(=O)oc4c3)C2O)(C(=O)O)OC1C(F)C(O)CO [compound 20, 4-Methylumbelliferyl (5-acetamido-3,5,7-trideoxy-7-fluoro-D-glycero-α-D-galacto-non2-ulopyranosylonic acid)-(23)-β-D-galactopyranoside]
spontaneous hydrolysis rate constant [2]: 0.29 (±0.01) h-1

CC(=O)N[C@H]1[C@H]([C@H](O)[C@H](O)CO)O[C@@](O[C@H]2[C@@H](O)[C@@H](CO)O[C@@H](Oc3ccccc3[N+](=O)[O-])[C@@H]2O)(C(=O)O)C[C@@H]1O [compound 17, ortho-Nitrophenyl (5-Acetamido-3,5-dideoxy-D-glycero-α-D-galacto-non2-ulopyranosylonic acid)-(2→3)-β-D-galactopyranoside, reference compound]
Km ([3]; pH 6.7): 800 µM | kcat ([3]; pH 6.7): 78 (±2) min^−1 | Km [4]: 830 µM | Vm [4]: 17.5 (±0.5) μM min^−1 | kcat ([5]; sialidase substrate, 30° C., pH 6.0): 83 (±4) min^−1

CC(=O)N[C@H]1[C@H]([C@H](O)[C@H](O)CO)O[C@](OP(=O)(O)OC[C@H]2O[C@@H](n3ccc(N)nc3=O)[C@H](O)[C@@H]2O)(C(=O)O)C[C@@H]1O [compound 16, CMP-NeuNAc, reference compound]
krel ([1]; spontaneous hydrolysis rate relative to CMP-NeuNAc): 1 | Hydrolysis rate constant ([1]; spontaneous hydrolysis, high salt pH 7.2 buffer, 1H-NMR): 0.94 (±0.01) h^−1 | kcat (rel) (Cst-I): 1 | kcat (rel) (Pm0188h): 1

CC(=O)N[C@H]1[C@H]([C@H](F)[C@H](O)CO)O[C@@](O[C@H]2[C@@H](O)[C@@H](CO)O[C@@H](Oc3ccccc3[N+](=O)[O-])[C@@H]2O)(C(=O)O)C[C@@H]1O [compound 18, ortho-Nitrophenyl (5-Acetamido-3,5,7-trideoxy-7-fluoro-D-glycero-α-D-galacto-non2-ulopyranosylonic acid)-(2→3)-β-D-galactopyranoside]
saturation of enzyme by substrate [3]: Saturation was not achieved | Km [4]: 390 µM | Vm [4]: 4.6 (±0.2) μM min^−1 | saturation of enzyme by substrate [5]: Saturation was not achieved

CC(=O)NC1C(O)CC(OC2C(O)C(CO)OC(Oc3ccc4c(C)cc(=O)oc4c3)C2O)(C(=O)O)OC1C(O)C(O)CO [compound 19, 4-Methylumbelliferyl (5-acetamido-3,5-dideoxy-D-glycero-α-D-galacto-non2-ulopyranosylonic acid)-(2→3)-β-D-galactopyranoside, reference compound]
spontaneous hydrolysis rate constant [2]: 1.45 (±0.8) h-1

CC(=O)N[C@H]1[C@H]([C@H](F)[C@H](O)CO)O[C@](OP(=O)(O)OC[C@H]2O[C@@H](n3ccc(N)nc3=O)[C@H](O)[C@@H]2O)(C(=O)O)C[C@@H]1O [compound 14, 5-Acetamido-3,5,7-trideoxy-2-(hydrogen 5′-cytidylate)-7-fluoro-D-glycero-b-D-galacto-2-nonulopyranosidic acid diammonium salt]
krel [1]: 0.33 | Hydrolysis rate constant ([1]; pH 7.2): 0.313 (±0.002) h^−1 | kcat (rel) (Cst-I): 0.77 | kcat (rel) (Pm0188h): 0.54
